The source of these data is paper PMC10945480 (Journal of Medicinal Chemistry, 2024).

One data set has as its system PDI. On the set-up: method as in PMID 22565308, PMID 22988091, PMID 27197150, PMID 24070012, PMID 24624466. The following applies: reported PDI inhibitors, Figure 1b; read-out: PDI IC50 measured by the insulin-aggregation assay; cited from earlier work.
The test system of data set [1] is washed human platelets. In words: U46619-induced platelet aggregation. It is filed as cell-based. The following applies: Platelet; washed human platelets, U46619 (1 μM). The essentials:
(§1)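 Washed platelets from ACD-anticoagulated blood of healthy donors, stirred at 1200 rpm, 37 °C in a turbidimetric aggregometer. Aggregation triggered by U46619 or collagen, scored as maximal rise in light transmission.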

Data set [2] concerns washed human platelets. In words: Collagen-induced platelet aggregation. It is filed as cell-based. The following applies: Platelet; washed human platelets, collagen (5 μg/mL). The essentials:
as §1

The next data set addresses T1, ERp57 (PDIA3) (Homo sapiens, UniProt P30101).
T1 sequence (P30101 25-505): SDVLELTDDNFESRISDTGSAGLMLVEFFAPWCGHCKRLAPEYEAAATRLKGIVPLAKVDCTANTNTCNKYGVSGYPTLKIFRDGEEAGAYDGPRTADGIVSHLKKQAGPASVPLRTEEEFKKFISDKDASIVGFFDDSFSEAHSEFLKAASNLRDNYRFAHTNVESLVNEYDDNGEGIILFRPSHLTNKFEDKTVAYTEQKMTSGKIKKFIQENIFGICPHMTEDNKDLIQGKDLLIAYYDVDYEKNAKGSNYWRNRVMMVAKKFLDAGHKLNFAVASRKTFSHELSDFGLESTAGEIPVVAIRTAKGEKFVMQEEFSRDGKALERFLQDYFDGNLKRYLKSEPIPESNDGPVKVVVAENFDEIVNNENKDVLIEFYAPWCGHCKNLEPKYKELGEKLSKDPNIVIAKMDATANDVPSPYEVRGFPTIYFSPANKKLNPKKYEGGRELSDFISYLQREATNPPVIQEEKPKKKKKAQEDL
In words: ERp57 reductase assay (Di-E-GSSG). It is filed as biochemical. The note with it: ERp57 and ERp72 together, fold higher than required to inhibit PDI. An excerpt:
In addition to PDI, ERp57 (PDIA3) and ERp72 (PDIA4) are two other major members of the PDI family in both platelets and A549 cells.[62],[63]

A short description of data set [3]: Parallel artificial membrane permeability assay (PAMPA). The note with it: 50 μM, 25 ℃, 3 h, verapamil = 100%, ranitidine = 0%. The essentials: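 Donor wells held 50 μM compound (DMSO <1% v/v, diluted from 10 mM stocks) in buffer; filter membrane coated with 2% w/v DOPC in n-dodecane. Sandwich incubated 3 h at 25 ℃, then donor and acceptor drug amounts quantified by UV spectra (220–400 nm) against reference standards.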

The test system of data set [4] is washed human platelets coincubated with A549, MDA-MB-231, or RPMI8226 cancer cells. In words: Tumor cell-induced platelet aggregation (TCIPA). It is filed as cell-based. The following applies: 2 μM; A549, MDA-MB-231, RPMI8226 cells, in the presence of plasma.
Data set [5] deals with washed human platelets coincubated with A549 cancer cells. In words: Tumor cell-induced platelet secretion (PDGF, ATP). It is filed as cell-based. On the procedure: (§2) (a) Washed human platelets were coincubated with A549 cancer cells under the same conditions as described in Figure 4. Secretion of PDGF and ATP were determined with the enzyme-linked immunosorbent assay (ELISA) and bioluminescent assay, respectively. (b) A549 cancer cells were coincubated with washed human platelets at 37 °C and 5% CO2 in a cell culture incubator for 48 h. After washing with PBS, the numbers of viable cancer cells were determined by trypan blue exclusion. Data are mean ± SEM of at least three independent experiments.
Washed human platelets were coincubated with cancer cells under the same conditions as described in the TCIPA assay. After a 25 min incubation in the aggregometer, the samples were centrifuged at 13,000g for 1 min. The concentrations of PDGF-BB and ATP in the supernatants were determined using an ELISA kit (Abcam, Cambridge, UK) and an ATP bioluminescent assay kit (Sigma, MO, USA), respectively.[52]

The next data set concerns A549 cancer cells. In words: Platelet-enhanced tumor cell proliferation. It is filed as cell-based, human. The note with it: A549 plus platelets, 48 h, 0.5 to 2 μM. How it is done:
In order to examine platelet-enhanced cancer cell growth, A549 cancer cells were coincubated with platelets for 48 h.
as §2, with “Figure 5 Inhibitory effects of JUG derivatives 18 and 22 on tumor cell-induced platelet secretion and platelet-enhanced tumor cell proliferation. (a)” for “(a)”, “experiments. In (a), *P < 0.05; **P < 0.01; ***P < 0.001 as compared with vehicle control (DMSO). In (b), *P < 0.05; **P < 0.01; ***P < 0.001 as compared with A549 cells plus platelets.” for “experiments.”
A549 cells (1 × 10^4 cells/well) were seeded in a 96-well plate and coincubated with wash human platelets (1 × 10^7 cells/well) containing with 0.375% plasma for 48 h at 37 °C and 5% CO2 in a cell culture incubator. After washing with phosphate buffered saline, the numbers of viable cancer cells were determined by trypan blue exclusion.

A further data set deals with glioma U87. In words: Cell viability, resazurin assay, U87. The following applies: Homo sapiens, 24 h, read-out: U87 IC50.
For a further data set, the system named is lung cancer A549. Description: Cell viability, resazurin assay, A549. The following applies: Homo sapiens, A549, 24 h, read-out: A549 IC50.
For data set [6], the system named is multiple myeloma RPMI8226. In words: Cell viability, resazurin assay, RPMI8226. The note with it: for S.I. (EAhy926/RPMI8226), selectivity index: 24 h IC50 ratio; for IC50: Homo sapiens.
Description: (§4) Cells were maintained in a humidified incubator at 37 °C in 5% CO2, and cell viability was determined with the resazurin assay (Cayman Chemical, USA) after the incubation with compounds for indicated concentrations and times or DMSO as control.[72]
Data set [7] concerns human vascular endothelial EA.hy926 cells. In words: Cell viability, resazurin assay, EA.hy926. The following applies: EA.hy 926, 24 h, read-out: EAhy926 IC50.
Description: as §4
A further data set has as its system breast cancer MDA-MB-231. In words: Cell viability, resazurin assay, MDA-MB-231. The note with it: Homo sapiens, MDA-MB-231, 24 h, read-out: MDA-MB-231 IC50.
Data set [8] concerns the target purified human recombinant PDI (rPDI) (Homo sapiens, UniProt P07237). In words: Recombinant PDI reductase activity (Di-E-GSSG assay). The following applies: human recombinant PDI, Di-E-GSSG.
Description: (§5) In this assay, a nonfluorescent substrate, dieosin glutathione disulfide (Di-E-GSSG), was reduced into a fluorescent product eosin-glutathione (E-GSH) by platelet surface PDI in the presence of 5 μM dithiothreitol (DTT).
The target in the next data set is platelet surface PDI (Homo sapiens, UniProt P07237). In words: Cell surface PDI reductase activity on intact human platelets (Di-E-GSSG assay). The following applies: read-out: Surface PDI IC50; intact human platelets, Di-E-GSSG, 5 μM DTT.
Sequence of platelet surface PDI (P07237 18-508): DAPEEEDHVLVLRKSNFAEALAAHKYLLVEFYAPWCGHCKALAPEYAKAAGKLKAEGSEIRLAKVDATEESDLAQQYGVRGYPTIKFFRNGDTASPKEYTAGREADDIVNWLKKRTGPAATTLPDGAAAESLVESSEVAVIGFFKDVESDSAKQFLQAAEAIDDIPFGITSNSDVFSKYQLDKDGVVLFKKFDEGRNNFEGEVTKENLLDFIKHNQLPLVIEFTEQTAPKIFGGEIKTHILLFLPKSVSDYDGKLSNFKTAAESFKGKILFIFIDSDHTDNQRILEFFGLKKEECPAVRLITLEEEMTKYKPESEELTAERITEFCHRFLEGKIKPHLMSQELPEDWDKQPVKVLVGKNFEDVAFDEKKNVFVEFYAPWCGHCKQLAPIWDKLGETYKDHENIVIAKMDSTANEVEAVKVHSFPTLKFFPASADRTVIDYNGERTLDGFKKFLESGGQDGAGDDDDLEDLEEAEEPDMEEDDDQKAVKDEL
In a further data set the target is Human rPDI (Homo sapiens, UniProt P07237). Description: Effect of GSH on rPDI inhibition (Di-E-GSSG assay). It is filed as biochemical. The note with it: 10 μM compound, 1 mM GSH vs 5 μM DTT. On the procedure: (§3) GSH is the major cellular nonprotein thiol, which exists within cells at millimolar concentrations (1–8 mM) while is present extracellularly at only a few micromolar.[53] The high concentrations of intracellular GSH thus may compete with the binding of PDI to covalent PDI inhibitors.[54] […] In this assay, the noncovalent PDI inhibitor isoquercetin was used as a negative control.
Sequence of Human rPDI (P07237 18-508): as above
Data are mean ± SEM of three independent experiments.

The nature of data set [9]: UPLC-MS analysis of compound metabolites in water with or without GSH. It is filed as physicochemical. The note with it: 37 °C, 30 min. How it is done:
as §3
Compounds (400 μM) were incubated in water (250 μL) with or without GSH (4 mM) at 37 °C for 30 min. The compound mixture was diluted with methanol (250 μL) and used for UPLC-MS analysis Metabolite analysis was performed on an ACQUITY UPLC I-Class/SQ Detector 2 (Waters, Milford, USA). The reverse phase BEH C18 column (100 mm × 2.1 mm, 1.7 μm, Waters) and VanGuard BEH C18 guard column (5 mm × 2.1 mm, 1.7 μm, Waters) were used. All data were acquired by Empower 3. The mobile phase for LC separation was Millipore water (A) and acetonitrile (B), and the program was as follows: 0.00 min 90% A → 0.50 min 90% A → 6.50 min 5% A → 8.50 min 5% A → 8.60 min 90% A → 9.00 min 90% A; at a rate of 0.4 mL/min for 9.00 min with 5 μL per injection. The temperature of the column oven was maintained at 40 °C. Mass spectrometer parameters were set as follows: cone voltage, 40.0 V, for positive/negative ion mode; desolvation temperature, 200 °C; cone gas flow(N2), 1 L/h; and desolvation gas flow (N2), 650 L/h.

Where [10] appears, read: RPMI-8226, 24 h, read-out: RPMI8226 IC50.

Where two headings read alike, the source gives them in different places.

Sequence of purified human recombinant PDI (rPDI) (P07237 18-508): as above
Description for breast cancer MDA-MB-231: as §4
Description for glioma U87: as §4
Description for lung cancer A549: as §4
Description for platelet surface PDI: as §5

For `N#Cc1cccc(/C=C/C(=O)c2ccc(O)cc2)c1` [BAP-2], the IC50 in the data set on PDI was 930 nM.

On to `CC(=O)OC[C@H]1O[C@H](OC2=CC(=O)c3cccc(O)c3C2=O)[C@H](OC(C)=O)[C@@H](OC(C)=O)[C@@H]1OC(C)=O` [Compound 22, 2-(2,3,4,6-Tetra-α-O-acetylglucopyranosyl)-8-hydroxynaphthalene-1,4-dione], for which the IC50 in the data set with washed human platelets [1] came to 1.54 ± 0.02 µM; with washed human platelets [2], 500 ± 80 nM; in the data set on glioma U87 it was 3.22 ± 0.37 µM; in the data set on lung cancer A549 it was 8.95 ± 0.23 µM; in data set [6] (setting [10]), 660 ± 80 nM; in data set [6] (RPMI-8226, 72 h, read-out: RPMI8226 IC50, 72 h) it was 48 nM. Besides, the IC50 in [7] turned out to be 5.42 ± 0.05 µM; in the data set on breast cancer MDA-MB-231, 4.42 ± 0.98 µM; in data set [8] (read-out: PDI IC50, Table 4), 630 ± 120 nM; in data set [8] (read-out: rPDI IC50, 5 μM DTT), 630 ± 120 nM; on platelet surface PDI it was 620 ± 60 nM. Besides, the “concentrations inhibiting ERp57 and ERp72 relative to PDI” value on ERp57 (PDIA3) lay within 4 to 7 fold. Besides, in data set [3], the “Permeability (%)” value was 57.45%. Moreover, the “prevention of TCIPA” value in data set [4] was “significantly prevented TCIPA”. Besides, the “tumor cell-induced increase in extracellular PDGF and ATP (platelet secretion)” value in data set [5] is reported as “reduced”. Moreover, the “platelet-enhanced cancer cell growth” value in the data set on A549 cancer cells was “to a lesser extent”. For the same molecule, the “S.I. (EAhy926/RPMI8226), selectivity index” value in data set [6] was 8.2.

For `CC(=O)OC[C@H]1O[C@@H](SC2=C(c3ccc(O)cc3O)C(=O)c3c(O)cccc3C2=O)[C@H](OC(C)=O)[C@@H](OC(C)=O)[C@@H]1OC(C)=O` [Compound 31, 2-(2,4-Dihydroxyphenyl)-3-(2,3,4,6-tetra-O-acetyl-1-thio-β-D-glucopyranose)-8-hydroxynaphthalene-1,4-dione], the IC50 is 3.54 ± 0.11 µM with washed human platelets [1]; 6650 ± 1740 nM in the data set on washed human platelets [2]; 7.39 ± 0.22 µM in the data set on glioma U87; 12.6 ± 1.51 µM in the data set on lung cancer A549; 3070 ± 290 nM in [6] (setting [10]); 6.87 ± 0.21 µM in data set [7]. For the same molecule, the IC50 with breast cancer MDA-MB-231 was 11.3 ± 1.09 µM; in [8] (read-out: rPDI IC50, 5 μM DTT), 670 ± 90 nM; at platelet surface PDI, 460 ± 70 nM. Also, the “Permeability (%)” value in data set [3] is 28.86%. Further, the “PDI-inhibitory activity in the presence of GSH” value at Human rPDI is on record as “largely reduced by GSH”. For the same molecule, the “stability in aqueous conditions (UPLC-MS)” value in [9] (400 μM in water) is reported as “easily hydrolyzed in aqueous condition”. Also, the “GSH adduct formation after GSH treatment (UPLC-MS)” value in data set [9] (400 μM, GSH 4 mM) is reported as “significant amount of GSH addition product”. The “S.I. (EAhy926/RPMI8226), selectivity index” value in data set [6] is listed as 2.2.

For the molecule `O=C1C=CC(=O)c2c(O)cccc21` [JUG (7), 5-hydroxy-1,4-naphthoquinone, reference compound], the IC50 came out at 4.45 ± 0.47 µM in the data set with washed human platelets [1]; 1180 ± 140 nM with washed human platelets [2]; 7.45 ± 0.33 µM with glioma U87; 11.9 ± 0.6 µM in the data set on lung cancer A549; 3950 ± 700 nM in [6] (setting [10]); 5.57 ± 0.02 µM in data set [7]. In addition, the IC50 with breast cancer MDA-MB-231 stood at 6.15 ± 0.78 µM; in data set [8] (read-out: PDI IC50, Table 4), 1100 ± 170 nM; in data set [8] (read-out: rPDI IC50, 5 μM DTT), 1100 ± 170 nM; at platelet surface PDI, 630 ± 70 nM. In addition, in data set [3], the “Permeability (%)” value is recorded as 83.43%. Moreover, at Human rPDI, the “PDI-inhibitory activity in the presence of GSH” value was “completely lost PDI-inhibitory activity”.

As to `CCOC(=O)C1(CCOc2ccccc2)CCN(Cc2ccc(O)c(Cl)c2)CC1` [ML359], in the data set on PDI, the IC50 is 250 nM.
